Data as given in patent US20240199587A1, “HETEROCYCLIC COMPOUNDS” (Hoffmann-La Roche Inc., priority 2021, published 2024).

Target: T1, MAGL (Homo sapiens, UniProt Q99685)
T1 sequence (Q99685 1-303): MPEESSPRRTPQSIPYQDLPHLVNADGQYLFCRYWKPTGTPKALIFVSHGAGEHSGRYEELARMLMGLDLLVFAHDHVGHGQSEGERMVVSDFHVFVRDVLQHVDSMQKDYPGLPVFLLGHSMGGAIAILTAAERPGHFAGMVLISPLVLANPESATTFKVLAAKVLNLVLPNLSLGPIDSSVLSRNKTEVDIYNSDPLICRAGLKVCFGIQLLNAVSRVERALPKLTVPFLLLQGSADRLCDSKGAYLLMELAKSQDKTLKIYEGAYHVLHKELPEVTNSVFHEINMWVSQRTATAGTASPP
Test: 2-AG assay (MAGL inhibitory activity, hydrolysis of 2-arachidonoylglycerol to arachidonic acid followed by mass spectrometry)
Assay type: biochemical
Conditions: 8 μM 2-arachidonoylglycerol, 15 min pre-incubation, 30 min incubation at RT, RapidFire MS readout
In short: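 Arachidonic acid released from 8 μM 2-arachidonoylglycerol was quantified by online SPE triple-quadrupole MS (negative ESI, 303.1→259.1), normalised to d8-arachidonic acid internal standard. Reaction ran 30 min at RT after 15 min RT compound pre-incubation with […] MAGL in TRIS/EDTA/Tween-20 buffer, 2.5% DMSO.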

SMILES | IC50 [nM]
O=C(N1CC(OCc2ccc(C(F)(F)F)c(F)c2)C1)N1CC2(CC(n3cnc(C4CC4)n3)C2)C1 [Example 74, (6-(3-cyclopropyl-1H-1,2,4-triazol-1-yl)-2-azaspiro[3.3]heptan-2-yl)(3-((3-fluoro-4-(trifluoromethyl)benzyl)oxy)azetidin-1-yl)methanone] | 160
CC(C)(C)c1nc(-c2ccc(C(=O)N3CC4(CC(n5cc(Cl)cn5)C4)C3)cc2)no1 [Example 6, [4-(5-tert-butyl-1,2,4-oxadiazol-3-yl)phenyl]-[6-(4-chloropyrazol-1-yl)-2-azaspiro[3.3]heptan-2-yl]methanone] | 191
O=C(N1CC2(CC(n3cnc(C4CC4)n3)C2)C1)N1CC2(CC(n3cnc(C4CC4)n3)C2)C1 [Example 510, bis[6-(3-cyclopropyl-1,2,4-triazol-1-yl)-2-azaspiro[3.3]heptan-2-yl]methanone] | 4.57
O=C(N1CC2(CC(Oc3ccc(OC(F)(F)F)cc3F)C2)C1)N1CC2(CC(n3cnc(C4CC4)n3)C2)C1 [Example 42, [6-(3-cyclopropyl-1,2,4-triazol-1-yl)-2-azaspiro[3.3]heptan-2-yl]−[6-[2-fluoro-4-(trifluoromethoxy)phenoxy]-2-azaspiro[3.3]heptan-2-yl]methanone] | 0.1
CS(=N)(=O)c1cccc(CC2CC3(C2)CN(C(=O)N2CC4(CC(n5cnc(C6CC6)n5)C4)C2)C3)c1 (stereo not drawn) [Example 461, [6-(3-cyclopropyl-1,2,4-triazol-1-yl)-2-azaspiro[3.3]heptan-2-yl]-[6-[[3-(methylsulfonimidoyl)phenyl]methyl]-2-azaspiro[3.3]heptan-2-yl]methanone] | 1.79
O=C(N1CC2(CC(Cc3ccc(C(F)(F)F)cn3)C2)C1)N1CC2(CC(n3cnc(C4(O)CC4)n3)C2)C1 [Example 408, [6-[3-(1-hydroxycyclopropyl)-1,2,4-triazol-1-yl]-2-azaspiro[3.3]heptan-2-yl]-[6-[[5-(trifluoromethyl)-2-pyridyl]methyl]-2-azaspiro[3.3]heptan-2-yl]methanone] | 0.31
O=C(N1CC(c2ccc(-c3nnc(C4(C(F)(F)F)CC4)[nH]3)cc2)C1)N1CC2(CC(n3cnc(C4CC4)n3)C2)C1 [Example 466, [6-(3-cyclopropyl-1,2,4-triazol-1-yl)-2-azaspiro[3.3]heptan-2-yl]-[3-[4-[5-[1-(trifluoromethyl)cyclopropyl]-4H-1,2,4-triazol-3-yl]phenyl]azetidin-1-yl]methanone] | 1.17
NC(=O)c1ccc(F)c(S(=O)(=O)N2CC3(CN(C(=O)N4CC5(CC(n6cnc(C7CC7)n6)C5)C4)C3)C2)c1 [Example 294] | 81.6
O=C(N1CC(c2cnc(N3CC(C(F)(F)F)C3)nc2)C1)N1CC2(CC(n3cnc(C(F)(F)F)n3)C2)C1 [Example 423, [3-[2-[3-(trifluoromethyl)azetidin-1-yl]pyrimidin-5-yl]azetidin-1-yl]-[6-[3-(trifluoromethyl)-1,2,4-triazol-1-yl]-2-azaspiro[3.3]heptan-2-yl]methanone] | 38.5
Cn1cc(S(=O)(=O)N2CC3(CN(C(=O)N4CC5(CC(n6cnc(C7CC7)n6)C5)C4)C3)C2)cn1 [Example 331, [6-(3-cyclopropyl-1,2,4-triazol-1-yl)-2-azaspiro[3.3]heptan-2-yl]-[2-(1-methylpyrazol-4-yl)sulfonyl-2,6-diazaspiro[3.3]heptan-6-yl]methanone] | 797
O=C(N1CC2(CC(n3cnc(C4(O)CC4)n3)C2)C1)N1CC2(CC[C@@H](Cc3cccc(S(=O)(=O)C(F)(F)F)c3)C2)C1 [Example 360, [6-[3-(1-hydroxycyclopropyl)-1,2,4-triazol-1-yl]-2-azaspiro[3.3]heptan-2-yl]-[(6S)-6-[[3-(trifluoromethylsulfonyl)phenyl]methyl]-2-azaspiro[3.4]octan-2-yl]methanone] | 0.13
CS(=O)(=O)c1ccc(CC2CC3(C2)CN(C(=O)N2CC4(CC(n5cnc(C6(O)CC6)n5)C4)C2)C3)cc1C(F)(F)F [Example 385, [6-[3-(1-hydroxycyclopropyl)-1,2,4-triazol-1-yl]-2-azaspiro[3.3]heptan-2-yl]-[6-[[4-methylsulfonyl-3-(trifluoromethyl)phenyl]methyl]-2-azaspiro[3.3]heptan-2-yl]methanone] | 1.25
O=C(N1CC2(CC(n3cnc(C4(O)CC4)n3)C2)C1)N1CC2(CC[C@H](Cc3ccc(S(=O)(=O)C(F)(F)F)cc3)C2)C1 [Example 363, [6-[3-(1-hydroxycyclopropyl)-1,2,4-triazol-1-yl]-2-azaspiro[3.3]heptan-2-yl]-[(6R)-6-[[4-(trifluoromethylsulfonyl)phenyl]methyl]-2-azaspiro[3.4]octan-2-yl]methanone] | 1.35
CP(C)(=O)c1ccc(CC2CC3(C2)CN(C(=O)N2CC4(CC(n5cnc(C6CC6)n5)C4)C2)C3)nc1 [Example 378, [6-(3-cyclopropyl-1,2,4-triazol-1-yl)-2-azaspiro[3.3]heptan-2-yl]-[6-[(5-dimethylphosphoryl-2-pyridyl)methyl]-2-azaspiro[3.3]heptan-2-yl]methanone] | 106

Continued by falling IC50, values first:

IC50 [nM] | SMILES
1060 | CP(C)(=O)c1ccc(COC2CN(C(=O)N3CC4(CC(n5cnc(C6CC6)n5)C4)C3)C2)cc1 [Example 415, [6-(3-cyclopropyl-1,2,4-triazol-1-yl)-2-azaspiro[3.3]heptan-2-yl]-[3-[(4-dimethylphosphorylphenyl)methoxy]azetidin-1-yl]methanone]
833 | CS(=O)(=O)c1cc(C(F)(F)F)ccc1C1CC2(C1)CN(C(=O)N1CC3(CC(Cc4ccc(F)cc4F)C3)C1)C2 [Example 347, [6-[(2,4-difluorophenyl)methyl]-2-azaspiro[3.3]heptan-2-yl]-[6-[2-methylsulfonyl-4-(trifluoromethyl)phenyl]-2-azaspiro[3.3]heptan-2-yl]methanone]
315 | CC(C)(C)c1nc(-c2ccc(C(=O)N3CC4(CC(n5cnc(Cl)c5)C4)C3)cc2)no1 [Example 159, [4-(5-tert-butyl-1,2,4-oxadiazol-3-yl)phenyl]-[6-(4-chloroimidazol-1-yl)-2-azaspiro[3.3]heptan-2-yl]methanone]
221 | Cc1cc(C(=O)N2CC3(CC(n4cnc(Cl)n4)C3)C2)cnc1OC(C)(C)C(F)(F)F [Example 175, [6-(3-chloro-1,2,4-triazol-1-yl)-2-azaspiro[3.3]heptan-2-yl]-[5-methyl-6-(2,2,2-trifluoro-1,1-dimethyl-ethoxy)-3-pyridyl]methanone]
197 | O=C(N1CC2(CCN(Cc3ccc(C(F)(F)F)nc3)CC2)C1)N1CC2(CC(n3cnc(C4(O)CC4)n3)C2)C1 [Example 392, [6-[3-(1-hydroxycyclopropyl)-1,2,4-triazol-1-yl]-2-azaspiro[3.3]heptan-2-yl]-[7-[[6-(trifluoromethyl)-3-pyridyl]methyl]-2,7-diazaspiro[3.5]nonan-2-yl]methanone]
176 | O=C(N1CC(c2ccc(-c3ccc(Cl)cc3F)cn2)C1)N1CC2(CC(c3ccc(C(F)(F)F)nc3)C2)C1 [Example 539, [3-[5-(4-chloro-2-fluoro-phenyl)-2-pyridyl]azetidin-1-yl]-[6-[6-(trifluoromethyl)-3-pyridyl]-2-azaspiro[3.3]heptan-2-yl]methanone]
33.1 | CC(C)(C)c1nc(-c2ccc(C(=O)N3CC4(CC(n5nccc5C5(C)CC5)C4)C3)cc2)no1 [Example 10, [4-(5-tert-butyl-1,2,4-oxadiazol-3-yl)phenyl]-[6-[5-(1-methylcyclopropyl)pyrazol-1-yl]-2-azaspiro[3.3]heptan-2-yl]methanone]
14.4 | N#Cc1cc(O[C@H]2C[C@@H]3CN(C(=O)N4CC5(CC(n6cnc(C7CC7)n6)C5)C4)C[C@@H]3C2)ccc1F [Example 127, 2-fluoro-5-[[rac-(3aS,6aR)-2-[6-(3-cyclopropyl-1,2,4-triazol-1-yl)-2-azaspiro[3.3]heptane-2-carbonyl]-3,3a,4,5,6,6a-hexahydro-1H-cyclopenta[c]pyrrol-5-yl]oxy]benzonitrile]
8.8 | O=C(N1CC2(CC(n3cnc(C4CC4)n3)C2)C1)N1CC2(C1)CN(S(=O)(=O)c1cccnc1Cl)C2 [Example 243, [2-[(2-chloro-3-pyridyl)sulfonyl]-2,6-diazaspiro[3.3]heptan-6-yl]-[6-(3-cyclopropyl-1,2,4-triazol-1-yl)-2-azaspiro[3.3]heptan-2-yl]methanone]
2 | O=C(N1CC(c2ccc(N3CC[C@@](O)(C(F)(F)F)C3)nc2)C1)N1CC2(CC(n3cnc(C4CC4)n3)C2)C1 [Example 216]
1.26 | O=C(N1CC(c2cnc(N3CC[C@@H](C(F)(F)F)C3)nc2)C1)N1CC2(CC(n3cnc(C4CC4)n3)C2)C1 [Example 482, [6-(3-cyclopropyl-1,2,4-triazol-1-yl)-2-azaspiro[3.3]heptan-2-yl]-[3-[2-[(3R)-3-(trifluoromethyl)pyrrolidin-1-yl]pyrimidin-5-yl]azetidin-1-yl]methanone]
1.1 | CC(C)(C)Cc1nc(-c2ccc(C(=O)N3CC4(CC(n5cnc(C6CC6)n5)C4)C3)cc2)no1 [Example 88, [6-(3-cyclopropyl-1,2,4-triazol-1-yl)-2-azaspiro[3.3]heptan-2-yl]−[4-[5-(2,2-dimethylpropyl)-1,2,4-oxadiazol-3-yl]phenyl]methanone]
0.7 | O=C(N1CC(c2ccc(OC(F)(F)F)c(Cl)c2)C1)N1CC2(CC(n3cnc(C4CC4)n3)C2)C1 [Example 53, [3-[3-chloro-4-(trifluoromethoxy)phe-nyl]azetidin-1-yl]-[6-(3-cyclopropyl-1,2,4-triazol-1-yl)-2-azaspiro[3.3]heptan-2-yl]methanone]
